# Assay: In vitro rat liver S9 stability assay (formation of tafamidis)
# Format: in vitro ADME
# Settings: rat liver S9, 1 μM test compound, 37° C.
# Method: A stability assay in liver S9 (rat or human) was used to evaluate the ability of a compound provided herein to convert to an active TTR stabilizer. The test compound was added to liver S9 and incubated at 37° C. in a water bath at a concentration of 1 μM. At each time point (0, 5, 10, 20, 30 and 60 min), stop solution (tolbutamide plus labetalol) was added to precipitate protein and mixed thoroughly. After centrifugation, an aliquot of supernatant was analyzed by LC-MS/MS. The percentage of formation of active agent was calculated at each time point.
row,Compound,Formation of tafamidis at 60 min
1,"CN(C)CCNC(=O)c1ccc2nc(-c3cc(Cl)cc(Cl)c3)oc2c1 [Compound 7, 2-(3,5-dichlorophenyl)-N-(2-(dimethylamino)ethyl)benzo[d]oxazole-6-carboxamide]",A (A is <25%)
2,"CC(Cc1ncc[nH]1)OC(=O)c1ccc2nc(-c3cc(Cl)cc(Cl)c3)oc2c1 (stereo not drawn) [Compound 34, 1-(1H-imidazol-2-yl)propan-2-yl 2-(3,5-dichlorophenyl)benzo-[d]oxazole-6-carboxylate]",A (A is <25%)
3,O=C(OC1CCN(CCO)C1)c1ccc2nc(-c3cc(Cl)cc(Cl)c3)oc2c1 (stereo not drawn) [Compound 66],A (A is <25%)
4,"COCCN1CCC(OC(=O)c2ccc3nc(-c4cc(Cl)cc(Cl)c4)oc3c2)C1 (stereo not drawn) [Compound 67, 1-(2-methoxyethyl) pyrrolidin-3-yl 2-(3,5-dichlorophenyl) benzo[d]oxazole-6-carboxylate]",A (A is <25%)
5,CC(Cc1cnc[nH]1)OC(=O)c1ccc2nc(-c3cc(Cl)cc(Cl)c3)oc2c1 (stereo not drawn) [Compound 80],A (A is <25%)
6,O=C(c1ccc2nc(-c3cc(Cl)cc(Cl)c3)oc2c1)N1CCOCC1 [Compound 81],A (A is <25%)
7,O=C(c1ccc2nc(-c3cc(Cl)cc(Cl)c3)oc2c1)N1CCCC1CO (stereo not drawn) [Compound 85],A (A is <25%)
8,"CN(C)C(=O)c1ccc2nc(-c3cc(Cl)cc(Cl)c3)oc2c1 [Compound 87, 2-(3,5-Dichlorophenyl)-N,N-dimethylbenzo[d]oxazole-6-carboxamide]",A (A is <25%)
9,O=C(c1ccc2nc(-c3cc(Cl)cc(Cl)c3)oc2c1)N1CCCCC1 [Compound 89],A (A is <25%)
10,O=C(c1ccc2nc(-c3cc(Cl)cc(Cl)c3)oc2c1)N(CCO)CC(F)F [Compound 90],A (A is <25%)
11,O=C(c1ccc2nc(-c3cc(Cl)cc(Cl)c3)oc2c1)N(CCO)CCF [Compound 91],A (A is <25%)
12,O=C(c1ccc2nc(-c3cc(Cl)cc(Cl)c3)oc2c1)N1CCCCC1CO (stereo not drawn) [Compound 95],A (A is <25%)
13,O=C(N[C@H]1CC[C@@H](O)CC1)c1ccc2nc(-c3cc(Cl)cc(Cl)c3)oc2c1 [Compound 96],A (A is <25%)
14,O=C(N[C@H]1CC[C@H](O)CC1)c1ccc2nc(-c3cc(Cl)cc(Cl)c3)oc2c1 [Compound 97],A (A is <25%)
15,O=C(N[C@@H]1CCC[C@H](O)C1)c1ccc2nc(-c3cc(Cl)cc(Cl)c3)oc2c1 [Compound 99],A (A is <25%)
16,O=C(N[C@@H]1CCC[C@@H](O)C1)c1ccc2nc(-c3cc(Cl)cc(Cl)c3)oc2c1 [Compound 100],A (A is <25%)
17,O=C(c1ccc2nc(-c3cc(Cl)cc(Cl)c3)oc2c1)N1C[C@@H]2[C@H](O)[C@@H]2C1 [Compound 108],A (A is <25%)
18,O=C(c1ccc2nc(-c3cc(Cl)cc(Cl)c3)oc2c1)N1C[C@@H]2[C@@H](O)[C@@H]2C1 [Compound 109],A (A is <25%)
19,O=C(c1ccc2nc(-c3cc(Cl)cc(Cl)c3)oc2c1)N1CC(F)(F)C[C@H]1CO [Compound 113],A (A is <25%)
20,O=C(c1ccc2nc(-c3cc(Cl)cc(Cl)c3)oc2c1)N1CCCCC(F)(F)C1 [Compound 115],A (A is <25%)
21,CC1(OC(=O)c2ccc3nc(-c4cc(Cl)cc(Cl)c4)oc3c2)CCNC1.Cl (stereo not drawn) [Compound 117],A (A is <25%)
22,O=C(c1ccc2nc(-c3cc(Cl)cc(Cl)c3)oc2c1)N1CCCC1C(F)(F)F (stereo not drawn) [Compound 118],A (A is <25%)
23,CC1(OC(=O)c2ccc3nc(-c4cc(Cl)cc(Cl)c4)oc3c2)CCN(CC(F)(F)F)C1 (stereo not drawn) [Compound 119],A (A is <25%)
24,CC1(OC(=O)c2ccc3nc(-c4cc(Cl)cc(Cl)c4)oc3c2)CCN(CCF)C1 (stereo not drawn) [Compound 120],A (A is <25%)
25,O=C(c1ccc2nc(-c3cc(Cl)cc(Cl)c3)oc2c1)N1C[C@@H](F)[C@@H](F)C1 [Compound 121],A (A is <25%)
26,CC1(OC(=O)c2ccc3nc(-c4cc(Cl)cc(Cl)c4)oc3c2)CCN(CC(F)F)C1 (stereo not drawn) [Compound 122],C (C is ≥50 to <75%)
27,CC1(OC(=O)c2ccc3nc(-c4cc(Cl)cc(Cl)c4)oc3c2)CCNCC1.Cl [Compound 123],A (A is <25%)
28,CC1(OC(=O)c2ccc3nc(-c4cc(Cl)cc(Cl)c4)oc3c2)CCN(CC(F)(F)F)CC1 [Compound 124],A (A is <25%)
29,CCN1CCC(C)(OC(=O)c2ccc3nc(-c4cc(Cl)cc(Cl)c4)oc3c2)CC1 [Compound 126],A (A is <25%)

# Now from value to molecule:
row,Formation of tafamidis at 60 min,Compound
1,A (A is <25%),O=C(c1ccc2nc(-c3cc(Cl)cc(Cl)c3)oc2c1)N1CCC(O)CC1 [Compound 82]
2,A (A is <25%),O=C(c1ccc2nc(-c3cc(Cl)cc(Cl)c3)oc2c1)N1CCCC(O)C1 (stereo not drawn) [Compound 83]
3,A (A is <25%),O=C(c1ccc2nc(-c3cc(Cl)cc(Cl)c3)oc2c1)N1CCC(O)C1 (stereo not drawn) [Compound 84]
4,A (A is <25%),O=C(c1ccc2nc(-c3cc(Cl)cc(Cl)c3)oc2c1)N1CC(O)C(F)(F)C1 (stereo not drawn) [Compound 86]
5,A (A is <25%),O=C(c1ccc2nc(-c3cc(Cl)cc(Cl)c3)oc2c1)N1CCCC1 [Compound 88]
6,A (A is <25%),CC1(O)CCN(C(=O)c2ccc3nc(-c4cc(Cl)cc(Cl)c4)oc3c2)C1 (stereo not drawn) [Compound 92]
7,A (A is <25%),O=C(c1ccc2nc(-c3cc(Cl)cc(Cl)c3)oc2c1)N1CC(O)C1 [Compound 93]
8,A (A is <25%),O=C(c1ccc2nc(-c3cc(Cl)cc(Cl)c3)oc2c1)N1CC2(CC(O)C2)C1 [Compound 94]
9,A (A is <25%),O=C(NC1CC2(CC(O)C2)C1)c1ccc2nc(-c3cc(Cl)cc(Cl)c3)oc2c1 (stereo not drawn) [Compound 98]
10,A (A is <25%),CC1(O)CCCN(C(=O)c2ccc3nc(-c4cc(Cl)cc(Cl)c4)oc3c2)C1 (stereo not drawn) [Compound 102]
11,A (A is <25%),CC1(O)CCN(C(=O)c2ccc3nc(-c4cc(Cl)cc(Cl)c4)oc3c2)CC1 [Compound 103]
12,A (A is <25%),O=C(c1ccc2nc(-c3cc(Cl)cc(Cl)c3)oc2c1)N1CCC2(CC(O)C2)C1 (stereo not drawn) [Compound 105]
13,A (A is <25%),CC1(O)CC2(CCN(C(=O)c3ccc4nc(-c5cc(Cl)cc(Cl)c5)oc4c3)C2)C1 (stereo not drawn) [Compound 106]
14,A (A is <25%),O=C(c1ccc2nc(-c3cc(Cl)cc(Cl)c3)oc2c1)N1CC2(CCC(O)C2)C1 (stereo not drawn) [Compound 107]
15,A (A is <25%),CC1(O)CC2(CN(C(=O)c3ccc4nc(-c5cc(Cl)cc(Cl)c5)oc4c3)C2)C1 [Compound 110]
16,A (A is <25%),CC1(O)CCC2(CN(C(=O)c3ccc4nc(-c5cc(Cl)cc(Cl)c5)oc4c3)C2)C1 (stereo not drawn) [Compound 111]
17,A (A is <25%),O=C(c1ccc2nc(-c3cc(Cl)cc(Cl)c3)oc2c1)N1CCC(F)C1 (stereo not drawn) [Compound 112]
18,A (A is <25%),O=C(c1ccc2nc(-c3cc(Cl)cc(Cl)c3)oc2c1)N1CC[C@@H](O)[C@@H](F)C1 [Compound 114]
19,A (A is <25%),O=C(c1ccc2nc(-c3cc(Cl)cc(Cl)c3)oc2c1)N1CCC(O)C(F)(F)C1 (stereo not drawn) [Compound 116]
20,A (A is <25%),O=C(c1ccc2nc(-c3cc(Cl)cc(Cl)c3)oc2c1)N1CC[C@H](O)[C@H](F)C1 [Compound 125]

# Assay: In vivo rat PK (CSF/plasma and brain/plasma ratio of tafamidis)
# Settings: oral dosing of test compound, over 24 hrs
# From the text: For a compound provided herein to be an effective TTR stabilizer drug to halt and/or prevent the ocular and cerebral TTR amyloid deposition TTR amyloidosis, it has to be able to penetrate into the brain and CSF (surrogate for eye penetration) and deliver a sufficient amount of TTR stabilizer to stop TTR dissociation. A pharmacokinetic study in rat was used to evaluate the compounds. Male Sprague-Dawley (SD) rats (200-220 g weight) were acclimated for at least 2 to 3 days before being placed on study. All animals had access to certified rodent diet and water at libitum. Appropriate amount of the test compound was accurately weighed and mixed with appropriate volume of vehicle (such as DMSO/sterile water for iv dosing or 0.5% methylcellulose homogenous suspension or solution for oral administration or as a solution in a mixture NMP/PEG400/solutol/water) to administer a dose of 2, 5 or 10 mg/kg. For IV dosing the test compound was administered via tail vein or indwelling cannula. For oral dosing, the test compound was administered by oral gavage. Blood and CSF samples were collected at selected timepoints. Blood collection was performed from saphenous vein or tail vein of each animal into polypropylene tubes at each timepoint. All blood samples were transferred into EDTA-K2 tubes and centrifuged for 15 minutes at 4° C. for plasma collection. Plasma samples were kept at −80° C. until LC/MSMS analysis. CSF was collected from cisterna magna at each timepoint and quick frozen over dry ice and kept at −80° C. until LC/MSMS analysis. Brains were harvested immediately after the terminal bleeding (˜24 hrs post dosing). The blood of the brain was perfused with normal saline. The brain was quickly picked and placed into centrifuge tube. The weight of brain samples was recorded. 4-Fold homogenization solution (MeOH/15 mM PBS (1:2)) was added into the tube according to the weighed samples. The brain was homogenized using a Polytron (3 strokes or more until homogenous, each 30 seconds) on wet ice. The samples were quick frozen over dry ice and kept at −80° C. until LC/MSMS analysis. Using a LC-MSMS method for the quantitative determination of test compound in biological matrixes, amount of test compound and active agent were measured in plasma and CSF at selected timepoints post-dosing and in brain at 24 hrs post dosing. Plasma concentration versus time data was analyzed by non-compartmental approaches using the Phoenix WinNonlin 6.3 software program. As reference, an oral dose of 2 mg/kg of tafamidis gave a CSF to plasma ratio over 24 hrs around 0.01 and a brain to plasma ratio at 24 hrs around 0.02.
# Results from rat PK (CSF/plasma ratio and brain/plasma ratio at 24 hrs) are shown in Table 4B and Table 4C, respectively.
row,Compound,Tafamidis CSF/plasma Ratio over 24 hrs (po)
1,"CN(C)CCNC(=O)c1ccc2nc(-c3cc(Cl)cc(Cl)c3)oc2c1 [Compound 7, 2-(3,5-dichlorophenyl)-N-(2-(dimethylamino)ethyl)benzo[d]oxazole-6-carboxamide]",C (C is ≥0.02)
2,"CC(Cc1ncc[nH]1)OC(=O)c1ccc2nc(-c3cc(Cl)cc(Cl)c3)oc2c1 (stereo not drawn) [Compound 34, 1-(1H-imidazol-2-yl)propan-2-yl 2-(3,5-dichlorophenyl)benzo-[d]oxazole-6-carboxylate]",B (B is ≥0.015 to <0.02)

# Further lines, results first:
row,Tafamidis CSF/plasma Ratio over 24 hrs (po),Compound
1,A (A is <0.015),O=C(c1ccc2nc(-c3cc(Cl)cc(Cl)c3)oc2c1)N1CCCC(O)C1 (stereo not drawn) [Compound 83]
2,A (A is <0.015),O=C(c1ccc2nc(-c3cc(Cl)cc(Cl)c3)oc2c1)N1CCC(O)C1 (stereo not drawn) [Compound 84]
3,A (A is <0.015),O=C(c1ccc2nc(-c3cc(Cl)cc(Cl)c3)oc2c1)N1CC(O)C1 [Compound 93]

# From patent US20240190831A1, “TRANSTHYRETIN STABILIZING COMPOUNDS” (Protego Biopharma, Inc., priority 2021, published 2024)
